These results are taken from US20250360091A1, “COMBINATION OF SGLT2 INHIBITOR AND MENTHOL AND USE THEREOF IN TREATMENT OF HEART DISEASE” (EAST CHINA UNIVERSITY OF SCIENCE AND TECHNOLOGY, priority 2023, published 2025).

One test deals with H9c2 cells. Description: GD-induced injury: LDH release and crystal violet staining (Example 2). It counts as cell-based, Rat. Particulars: empagliflozin 100 μM and 200 μM; GD 48 h. Here is the method:
To further verify the anti-heart failure efficacy of the drug composition, H9c2 cells were seeded into 24-well plates. After the cells covered the bottom of the dish, the high-glucose DMEM was removed, the plate was washed once with PBS, and empagliflozin alone and different concentrations of the drug composition were prepared with sugar-free and serum-free DMEM medium, and added to the cells for glucose deprivation treatment. For the GD group, sugar-free and serum-free DMEM medium without drugs was added. For the NG group, high-glucose DMEM containing serum was continued to be added for culture. After 48 hours of glucose deprivation treatment, 50 μL of culture medium was taken to a 96-well plate, and the release of LDH in the culture medium was detected using an LDH detection kit. The culture medium was removed, the cells were placed on ice, and washed twice with pre-cooled PBS for 3 to 5 minutes each time. The cells were fixed with pre-cooled methanol at −20° C. for 10 minutes. Methanol was removed and the cells were returned to room temperature. […] The cells were placed in a 37° C. oven for drying, photographed under a microscope, and the staining was quantified by Image J. The larger the purple area, the more cells survived, and the more LDH was released, which indicated more cell damage. […]

Test [1] relates to ISO-induced heart failure model. Description: Isoproterenol-induced heart failure model (Example 3). Particulars: for cardiac function (ejection fraction, fractional shortening, echocardiography): gavage daily, day 15. It is filed as in vivo, C57/6J male mice. Here is the method: Isoproterenol hydrochloride is a commonly used inducer for establishing a heart failure model. Subcutaneous injection of isoproterenol hydrochloride can accelerate the heart rate of mice, cause the myocardium to continue to contract strongly, increase myocardial oxygen consumption, increase the heart load, and eventually cause heart failure.
Preferably, 50 µM of empagliflozin and 200 μM of menthol were converted into a mass ratio of about 1:1.5 according to the molar molecular weight. The dose of empagliflozin was set at 10 mg/kg and 30 mg/kg, and the pharmaceutical composition was set as the 10 mg/kg empagliflozin+15 mg/kg menthol group. In addition, in order to determine the extent to which the combination of menthol can reduce the effective dose of empagliflozin, a combination of menthol at a dose of 15 mg/kg and empagliflozin at a dose of 5 mg/kg was administered, resulting in the empagliflozin 5 mg/kg+menthol 15 mg/kg group.
Specifically, C57/6J male mice with an average body weight of about 21-22 g were divided into 7 groups (sham group, ISO group, empagliflozin 30 mg/kg group (E30), empagliflozin 10 mg/kg group (E10), menthol 15 mg/kg group (M15), empagliflozin 10 mg/kg+menthol 15 mg/kg group (E10+M15), empagliflozin 5 mg/kg+menthol 15 mg/kg group (E5+M15)), with 8 mice in each group. The mice were given drugs by gavage every morning, and the solvent was DMSO (the content was less than 5%, and menthol and empagliflozin solution were mixed in equal volumes and then gavaged into the mice). The sham group and ISO group were gavaged with an equal amount of drinking water every morning.
Isoproterenol hydrochloride was injected subcutaneously twice a day, in the morning and evening, with a dose of 40 mg/kg on days 1-2, 20 mg/kg on days 3-7, and 10 mg/kg on days 8-14. […]
On the 15th day, the Visual-Sonics Vevo 3100 small animal high-resolution micro-ultrasound imaging system was used to evaluate the cardiac structure and function of the experimental mice in each group. Three cardiac cycles were taken to measure the systolic interventricular septum thickness (IVSs), diastolic interventricular septum thickness (IVSd), left ventricular systolic inner diameter (LVIDs), left ventricular diastolic inner diameter (LVIDd), systolic left ventricular posterior wall thickness (LVPWs), and diastolic left ventricular posterior wall thickness (LVPWd), and the ejection fraction (EF, %) and fractional shortening (FS, %) were calculated. […] ImageJ was used to quantify the fibrosis area and calculate the degree of cardiac fibrosis. Graph Pad software was used for data processing and significant differences were calculated (OneWayANOVA was used between multiple groups, and Student's t test was used between two groups).

Test [2] concerns Rat cardiomyocytes (H9c2). Description: GD-induced myocardial cell damage model, CCK-8, SGLT2 inhibitors with L-menthol (Example 9). The conditions noted are these: single drugs: SGLT2 inhibitor 50 μM or menthol 200 μM; GD 36-48 h; untreated group 54.7%. It is filed as cell-based.
Procedure: In this example, the protective effect of the drug composition on myocardial cells was evaluated by using a GD-induced myocardial cell damage model. […] Rat cardiomyocytes (H9c2) were purchased from the Chinese Academy of Sciences Stem Cell Bank. The cardiomyocytes were cultured in high-glucose DMEM medium (Gibco, 11995-065) containing 10% fetal bovine serum and 1% penicillin/streptomycin, and incubated in a 37° C., 5% CO2 incubator. […] When the cells reached confluence, the DMEM medium was removed, and the cells were washed once with PBS. […] The synergistic coefficient was calculated using the Zero interaction dose model, with the formula: CI=(EAB−EA*EB)/(EA+EB−EA*EB), wherein CI is the synergistic effect index, EAB is the efficacy index of the combination of drugs, and EA and EB are the efficacy indices of the individual drugs, respectively.

As for `OC[C@H]1O[C@@H](c2ccc(Cl)c(Cc3ccc(O[C@H]4CCOC4)cc3)c2)[C@H](O)[C@@H](O)[C@@H]1O` [empagliflozin], the “cell survival rate (crystal violet purple area, LDH release)” value in the test on H9c2 cells is recorded as “significantly increases the cell survival rate in a dose-dependent manner”. In addition, the “cardiac function (ejection fraction, fractional shortening, echocardiography)” value in test [1] (empagliflozin 10 mg/kg) is recorded as “cannot significantly improve the cardiac function”. For the same molecule, in test [1] (empagliflozin 30 mg/kg), the “myocardial fibrosis (Masson staining area)” value is “significantly reduce myocardial fibrosis” and the “cardiac function (ejection fraction, fractional shortening, echocardiography)” value is listed as “can effectively improve”. In addition, the cell survival rate in test [2] is reported as 64.5%.

With `CC(C)[C@@H]1CC[C@@H](C)C[C@H]1O` [menthol, L-menthol], in test [1] (menthol 15 mg/kg), the “cardiac function (ejection fraction, fractional shortening, echocardiography)” value is “slightly improved the cardiac function of mice with heart failure at a dose of 15 mg/kg, but there is no significant difference”. In test [2], this molecule had a cell survival rate of 56.7%.
